Like-named read-outs stand apart in the source and are kept apart here.
Experiments:
[1] = system: kidney tissue of g-ddY mice
[2] = patients with diabetic kidney disease; cited from earlier work
[3] = 20 mg/kg/day vs untreated control
[4] = 30 mg/kg/day vs untreated control

## CCCCN(CCCC)C(=O)CN1C[C@H](c2ccc3c(c2)OCO3)[C@@H](C(=O)O)[C@@H]1c1ccc(OC)cc1 [Atrasentan, (2R,3R,4S)-4-(1,3-benzodioxol-5-yl)-1-[2-(dibutylamino)-2-oxoethyl]-2-(4-methoxyphenyl)pyrrolidine-3-carboxylic acid]
[1]; 20 mg/kg/day vs control
  Iv1 logFC: −3.8887
  Klf15 logFC: 0.8799
  Krt5 logFC: −3.044
  Lep logFC: −5.905
  Lgals12 logFC: −2.536
  Lhx1 logFC: 0.9258
  Ly6d logFC: −3.377
  Morn2 logFC: 0.9375
  Nat81 logFC: −3.263
  Ndrg1 logFC: 0.8946
  Npas2 logFC: 1.012
  Otop1 logFC: −5.808
  Paral1 logFC: −5.133
  Pfn3 logFC: 0.934
  Plekhs1 logFC: −3.661
  Prkar2b logFC: −2.468
  Prodh logFC: 0.8987
  Pvalb logFC: 0.9441
  Ren1 logFC: 1.117
  Slc6a19 logFC: 0.9585
  Slc34a3 logFC: 0.9345
  Sprr2a3 logFC: −4.403
  Tmem37 logFC: 0.9439
  Tns4 logFC: −2.381
[1]; [3]
  ET1 gene signature genes downregulated: Nfatc1, Grk5, Klf2, Cav1, Pparg, Itga5, Myc, Ednra, Sell, Hgf, Mmp2, Edn1, Syk, Fos, and IL-1b
  ET1 gene signature genes upregulated: Ccdn1, Cat, Ppara, Map2k2, Hoxa9, Agt, and Egfr
[1]; 30 mg/kg/day
  Ednra and Ednrb gene expression: downregulated
[1]; 30 mg/kg/day versus control
  number of downregulated genes: 768 genes
  number of upregulated genes: 910 genes
[1]; 30 mg/kg/day vs control
  1700003D09Rik logFC: −2.087
  1700101I11Rik logFC: 1.613
  A530016L24Rik logFC: −3.0348
  Adamts17 logFC: −3.191
  Adcy2 logFC: −2.327
  Ankef1 logFC: −2.3582
  Arhgap36 logFC: −2.908
  Atf3 logFC: −2.22
  Bhmt logFC: 4.173
  Calb1 logFC: 1.211
  Ccl20 logFC: −2.471
  Chadl logFC: 1.41
  Clec2h logFC: 1.215
  Clec4d logFC: −4.65
  Cxcl2 logFC: −2.6664
  Cyp27b1 logFC: 1.35
  E030018B13Rik logFC: −2.373
  Ebf2 logFC: −2.386
  Ethe1 logFC: 1.211
  Fam163b logFC: −2.785
  Fat3 logFC: −2.067
  Frs3 logFC: 1.176
  G6pc logFC: 1.207
  Gm20026 logFC: −2.0755
  Igfbp1 logFC: 3.447
  Igkv3-5 logFC: −2.722
  Il1b logFC: −2.263
  Kcnk2 logFC: −2.431
  Kif1a logFC: −2.108
  Misp3 logFC: 1.307
  Mogat2 logFC: 1.285
  Ndrg1 logFC: 1.197
  Nepn logFC: 1.291
  Nkx3-1 logFC: 1.294
  Npas2 logFC: 1.394
  Pgam2 logFC: 1.24
  Plch2 logFC: −2.423
  Pvalb logFC: 1.389
  Ren1 logFC: 1.531
  Rnf182 logFC: −2.817
  S100g logFC: 1.296
  Slc6a19 logFC: 1.238
  Slc16a1 logFC: 1.178
  Slc34a3 logFC: 1.436
  Stx1b logFC: −2.245
  Tns4 logFC: −2.443
  Wnt10a logFC: −2.071
  Xirp2 logFC: −2.619
[1]; [4]
  ET1 gene signature genes downregulated: Ednrb, Myc, Mllt3, Hdac7, Ednra, Itga5, Grk5, Pparg, Klf2, Hgf, Mmp2, Sell, Sphk1, Fos, Syk, Edn1, and IL-1b
  ET1 gene signature genes upregulated: Ccnd1, Agt, Cat, Map2k2, Hoxa9, and Ppara
[1]; all three doses (10, 20, 30 mg/kg/day)
  ET1 (End1) gene expression: downregulated
[1]; atrasentan treated mice
  genes overlapping with human specific Atra/ET1 gene signature: 53 of 60
[2]
  risk of renal events (doubling of serum creatinine or end-stage kidney disease): significantly reducing the risk of renal events

From patent US20210353593A1 (Chinook Therapeutics, Inc., priority 2019, published 2021)
